The target in data set [1] is T1, 5-hydroxytryptamine receptor 1A (Homo sapiens, UniProt P08908).
T1 sequence (P08908 whole entry): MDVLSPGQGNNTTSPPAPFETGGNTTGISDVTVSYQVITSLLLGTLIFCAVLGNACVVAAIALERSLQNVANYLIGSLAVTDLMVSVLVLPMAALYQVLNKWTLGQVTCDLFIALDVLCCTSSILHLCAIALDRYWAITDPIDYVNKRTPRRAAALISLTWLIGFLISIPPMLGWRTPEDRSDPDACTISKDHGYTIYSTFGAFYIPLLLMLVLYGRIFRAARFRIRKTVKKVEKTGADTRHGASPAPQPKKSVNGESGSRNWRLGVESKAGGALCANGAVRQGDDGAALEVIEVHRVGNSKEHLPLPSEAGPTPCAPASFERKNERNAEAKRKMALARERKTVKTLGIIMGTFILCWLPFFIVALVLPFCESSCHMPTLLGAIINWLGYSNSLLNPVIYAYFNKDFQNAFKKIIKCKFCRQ
Kind of data set: Binding affinity at human 5-hydroxytryptamine 1A receptor by inhibition of [3H]8-OH-DPAT binding in Chinese hamster ovary cell line. Format: cell-based.

Data set [2] has as its target T2, Adrenergic receptor alpha-1 (Rattus norvegicus, UniProt P15823+P23944+P43140).
T2 sequence (P15823 whole entry): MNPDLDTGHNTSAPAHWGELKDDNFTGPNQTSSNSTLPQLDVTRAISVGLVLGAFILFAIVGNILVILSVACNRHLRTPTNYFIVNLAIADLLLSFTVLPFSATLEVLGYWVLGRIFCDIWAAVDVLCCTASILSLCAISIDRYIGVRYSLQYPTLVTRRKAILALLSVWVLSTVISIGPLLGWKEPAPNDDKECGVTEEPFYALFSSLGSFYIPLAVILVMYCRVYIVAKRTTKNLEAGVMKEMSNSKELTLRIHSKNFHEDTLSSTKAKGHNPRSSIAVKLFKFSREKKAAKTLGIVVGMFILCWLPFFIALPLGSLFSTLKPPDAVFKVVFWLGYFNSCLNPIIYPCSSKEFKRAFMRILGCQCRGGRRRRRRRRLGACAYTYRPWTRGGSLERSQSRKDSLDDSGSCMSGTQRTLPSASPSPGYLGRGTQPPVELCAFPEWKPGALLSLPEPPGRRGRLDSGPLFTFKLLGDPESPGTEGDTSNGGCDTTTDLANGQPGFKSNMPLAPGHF
T2 sequence (P23944 whole entry): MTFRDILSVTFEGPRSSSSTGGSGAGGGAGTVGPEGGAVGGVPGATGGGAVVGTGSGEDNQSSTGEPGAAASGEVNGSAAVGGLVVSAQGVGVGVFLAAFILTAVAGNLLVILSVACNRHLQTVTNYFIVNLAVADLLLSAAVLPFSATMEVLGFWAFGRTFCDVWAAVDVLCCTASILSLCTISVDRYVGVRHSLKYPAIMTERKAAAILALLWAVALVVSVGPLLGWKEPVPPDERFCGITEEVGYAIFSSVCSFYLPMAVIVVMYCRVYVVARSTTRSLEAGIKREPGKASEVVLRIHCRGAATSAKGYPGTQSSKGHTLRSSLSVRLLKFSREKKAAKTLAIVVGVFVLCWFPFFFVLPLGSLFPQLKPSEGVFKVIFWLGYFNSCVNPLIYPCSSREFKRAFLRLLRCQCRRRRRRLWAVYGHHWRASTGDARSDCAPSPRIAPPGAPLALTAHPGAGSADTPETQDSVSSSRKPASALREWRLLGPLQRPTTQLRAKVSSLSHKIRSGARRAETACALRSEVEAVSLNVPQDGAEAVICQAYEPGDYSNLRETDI
T2 sequence (P43140 whole entry): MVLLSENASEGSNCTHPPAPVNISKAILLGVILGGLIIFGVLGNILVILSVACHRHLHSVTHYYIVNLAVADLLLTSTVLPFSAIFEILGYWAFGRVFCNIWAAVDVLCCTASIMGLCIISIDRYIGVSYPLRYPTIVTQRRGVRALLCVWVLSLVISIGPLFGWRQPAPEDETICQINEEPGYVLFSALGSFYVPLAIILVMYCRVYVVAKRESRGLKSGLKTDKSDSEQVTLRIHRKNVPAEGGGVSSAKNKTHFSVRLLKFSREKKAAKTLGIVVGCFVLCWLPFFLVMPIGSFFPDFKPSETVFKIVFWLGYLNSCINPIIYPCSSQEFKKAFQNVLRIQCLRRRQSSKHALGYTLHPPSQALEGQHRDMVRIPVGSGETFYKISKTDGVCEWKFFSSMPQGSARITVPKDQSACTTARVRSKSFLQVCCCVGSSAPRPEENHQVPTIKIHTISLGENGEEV
Kind of data set: Binding affinity at Alpha-1 adrenergic receptor by inhibition of [3H]-prazosin binding to rat cortex.

Data set [3] in a line: In vitro oral metabolic bioavailability after incubation with hepatic microsomes. Type of data set: ADME, Liver. The conditions noted are these: read-out: MF.
Data set [4] in a line: Selectivity ratio towards Alpha-1 adrenergic receptor to human 5-hydroxytryptamine 1A receptor.
For data set [5], the target named is T3, 5-hydroxytryptamine receptor 1A (Rattus norvegicus) (UniProt P19327).
T3 sequence (whole entry): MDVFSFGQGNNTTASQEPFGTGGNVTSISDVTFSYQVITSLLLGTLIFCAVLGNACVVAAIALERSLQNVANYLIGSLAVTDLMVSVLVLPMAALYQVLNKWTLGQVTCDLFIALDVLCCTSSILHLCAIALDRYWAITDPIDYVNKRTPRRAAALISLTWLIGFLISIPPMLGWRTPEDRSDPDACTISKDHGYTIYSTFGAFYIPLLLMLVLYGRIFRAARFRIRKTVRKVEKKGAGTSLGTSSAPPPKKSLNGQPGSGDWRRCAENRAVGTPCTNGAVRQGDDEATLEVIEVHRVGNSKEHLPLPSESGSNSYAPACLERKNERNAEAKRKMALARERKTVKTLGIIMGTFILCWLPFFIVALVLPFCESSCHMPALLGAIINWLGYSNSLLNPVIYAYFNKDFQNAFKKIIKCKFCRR
Kind of data set: Antagonistic activity at postsynaptic 5-hydroxytryptamine 1A receptor was measured by its ability to inhibit hypothermia elicited by s.c. administration of 8-OH-DPAT in rat;ranges from (0.37-4.27). Type of data set: functional, organism-based.

In data set [6] the target is T3, 5-hydroxytryptamine receptor 1A (Rattus norvegicus). Kind of data set: Antagonistic activity at postsynaptic 5-hydroxytryptamine 1A receptor was measured by its ability to inhibit hypothermia elicited by s.c. administration of 8-OH-DPAT in rat;ranges from (0.80-5.80). Type of data set: functional, organism-based.
For data set [7] the target is unchanged. Kind of data set: Antagonistic activity at postsynaptic 5-hydroxytryptamine 1A receptor was measured by its ability to inhibit hypothermia elicited by s.c. administration of 8-OH-DPAT in rat;ranges from (1.50-16.5). Format: functional, organism-based.
Data set [8] shares this target. The experiment in a line: Antagonistic activity at postsynaptic 5-hydroxytryptamine 1A receptor was measured by its ability to inhibit hypothermia elicited by s.c. administration of 8-OH-DPAT in rat;ranges from (0.40-2.70). Format: functional, organism-based.

A value given as a limit tells only on which side of the number the result lay.

Broadly, the Ki is the dissociation constant of the complex between target and ligand, obtained from inhibition or displacement. The molecule `COc1ccc2c(c1)C[C@@H](N1CCN(c3cccc4c3OCCO4)CC1)[C@@H]2O` (racemic) had a Ki in data set [1] of 1.26 nM. The “Log Ki” value in data set [2] was -6.55. For the same molecule, the Fh in data set [3] came out at 80%.
On the same counts, the results for `O[C@@H]1c2ccc(F)cc2C[C@H]1N1CCN(c2cccc3c2OCCO3)CC1` (racemic) are 1.26 nM, -6.15 and 65%.
In data set [1], `O[C@@H]1c2ccc(F)cc2C[C@H]1N1CCC(c2cc(F)cc3c2OCCC3)CC1` (relative stereo) had a Ki of 4.9 nM. In addition, the “Log Ki” value in data set [2] is listed as -7.26. Also, in data set [4], the Ratio came to 11.
For `O[C@@H]1c2ccc(F)cc2C[C@H]1N1CCN(c2cc(Cl)cc3c2OCCO3)CC1` (relative stereo), in that order: 1.32 nM, -6.07 and 645.
In data set [5], `COc1ccc2c(c1)[C@@H](O)[C@H](N1CCN(c3cccc4c3OCCO4)CC1)C2` (relative stereo) had an ID50 of 1.25 mg/kg. This molecule gave a Ki in data set [1] of 0.447 nM. In addition, in data set [2], the “Log Ki” value is on record as -6.57. Moreover, the Ratio in data set [4] amounted to 603. For the same molecule, in data set [3], the Fh is 62%.
In data set [1], `O[C@@H]1c2ccc(F)cc2C[C@H]1N1CCN(c2cccc3c2OCCC3)CC1` (relative stereo) gave a Ki of 1.29 nM. Further, in data set [2], the “Log Ki” value is reported as -6.67. For the same molecule, in data set [4], the Ratio was 166.
For the molecule `COc1ccc2c(c1)C[C@@H](N1CCN(c3cccc4c3OCCO4)CC1)[C@H]2O` (relative stereo), the Ki in data set [1] is 23.4 nM.
Regarding `O[C@@H]1c2ccc(F)cc2C[C@H]1N1CCC(O)(c2cccc3c2OCCO3)CC1` (relative stereo), the inhibitory constant (Ki) in data set [1] is more than 1000 nM. Also, the “Log Ki” value in data set [2] was -6.31. In addition, in data set [4], the Ratio was less than 1.
In data set [1], `O[C@H]1c2ccc(F)cc2C[C@H]1N1CCN(c2cccc3c2OCCC3)CC1` (relative stereo) had a Ki of 316 nM.
`Cc1ccc2c(c1)[C@@H](O)[C@H](N1CCC(c3cccc4c3OCCO4)CC1)C2` (relative stereo) gave a Ki in data set [1] of 0.55 nM. Further, in data set [2], the “Log Ki” value is recorded as -7.44. Besides, the Ratio in data set [4] was 66.
On the same counts, the results for `OCC1COc2c(cc(Cl)cc2N2CCN([C@@H]3Cc4cc(F)ccc4[C@H]3O)CC2)O1` (relative stereo) are 10.5 nM, -6.17 and 64.
On the same counts, the results for `O[C@@H]1c2ccc(F)cc2C[C@H]1N1CCC(c2cccc3c2OCCC3)CC1` (relative stereo) are 0.302 nM, -7.64 and 76.
As to `O[C@@H]1c2cc(F)ccc2C[C@H]1N1CCC(c2cccc3c2OCCO3)CC1` (relative stereo), the ID50 in data set [6] came out at 2.1 mg/kg. The same molecule showed an inhibition constant (Ki) in data set [1] of 0.776 nM. Also, in data set [2], the “Log Ki” value is -7.1. Besides, in data set [4], the Ratio is 102. Further, the Fh in data set [3] is 8%.
In the case of `COc1ccc2c(c1)[C@H](O)[C@H](N1CCN(c3cccc4c3OCCO4)CC1)C2` (relative stereo), the Ki in data set [1] was 17.4 nM.
In data set [1], `O[C@@H]1c2ccc(F)cc2C[C@H]1N1CCC(c2cccc3c2OCC3)CC1` (relative stereo) gave a Ki of 1.51 nM. Besides, the “Log Ki” value in data set [2] was -7.34. Further, the Ratio in data set [4] is 30.
In turn, `O[C@@H]1c2cc(F)c(F)cc2C[C@H]1N1CCC(c2cccc3c2OCCO3)CC1` (relative stereo) returned an ID50 in data set [7] of 5 mg/kg. The Ki in data set [1] was 2.19 nM. Moreover, the “Log Ki” value in data set [2] is reported as -7.08. Moreover, the Ratio in data set [4] is 38. For the same molecule, the Fh in data set [3] is 5%.
In turn, `O[C@@H]1c2ccc(F)cc2C[C@H]1N1CC=C(c2cccc3c2SCCC3)CC1` (relative stereo) gave a Ki in data set [1] of 11.7 nM.
Turning to `O[C@@H]1c2cc(F)ccc2C[C@H]1N1CCN(c2cccc3c2OCCO3)CC1` (relative stereo), the ID50 in data set [8] came out at 1 mg/kg. Also, the Ki in data set [1] is 1.32 nM. Also, the “Log Ki” value in data set [2] is -6.13. Also, in data set [4], the Ratio came to 561. Besides, the Fh in data set [3] is 46%.
In the case of `O[C@H]1c2ccc(F)cc2C[C@H]1N1CCC(c2cccc3c2OCCO3)CC1` (relative stereo), the Ki in data set [1] is 26.9 nM.
Same read-out and setting: next, `O[C@H]1c2ccc(F)cc2C[C@H]1N1CCC(O)(c2cccc3c2OCCO3)CC1` (relative stereo): more than 1000 nM.
In data set [1], `COc1cc2c(cc1OC)[C@@H](O)[C@H](N1CCC(c3cccc4c3OCCO4)CC1)C2` (relative stereo) gave a Ki of 79.4 nM. For the same molecule, in data set [2], the “Log Ki” value is on record as -6.9. In addition, the Ratio in data set [4] was found to be 1.5.
For the molecule `O[C@H]1c2ccccc2C[C@H]1N1CC=C(c2cccc3c2OCCO3)CC1` (relative stereo), in data set [1], the Ki is 22.9 nM.
With `O[C@@H]1c2ccc(F)cc2C[C@H]1N1CCC(c2cccc3c2OCCO3)CC1` (relative stereo), in data set [1], the inhibition constant (Ki) was 0.437 nM. The “Log Ki” value in data set [2] was -7.19. Also, the Ratio in data set [4] is 148. The Fh in data set [3] came to 7%.
Consider `Cc1ccc2c(c1)C[C@@H](N1CCC(c3cccc4c3OCCO4)CC1)[C@@H]2O` (relative stereo), for which, in data set [1], the affinity, expressed as Ki, was 1.17 nM. For the same molecule, the “Log Ki” value in data set [2] is recorded as -7.77. Besides, the Ratio in data set [4] turned out to be 14.5.
With `COc1ccc2c(c1)C[C@@H](N1CCN(c3cccc4c3OCCO4)CC1)[C@@H]2O` (stereo in doubt; (+)), the affinity in data set [1] corresponds to a Ki of 6.61 nM.
On the same count and under the same terms, for `O[C@@H]1c2ccc(F)cc2C[C@H]1N1CCN(c2cccc3c2OCCO3)CC1` (stereo in doubt; (+)) the value was 0.631 nM; for `COc1ccc2c(c1)C[C@@H](N1CCN(c3cccc4c3OCCO4)CC1)[C@@H]2O` (stereo in doubt; (-)), 1.02 nM; for `O[C@@H]1c2ccc(F)cc2C[C@H]1N1CCN(c2cccc3c2OCCO3)CC1` (stereo in doubt; (-)), 2.04 nM.
